Measured values reported in PubChem BioAssay AID1205 (EPA DSSTox, 2008).
Calls of active or inactive are those of the source.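 The calls were made as follows: active = tumour findings in long-term animal cancer tests in more than one sex, species or organ; inactive = no tumour finding and more than one negative test.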

Test: DSSTox (CPDBAS) Carcinogenic Potency Database Summary MultiCellCall Results
Conditions: animal carcinogenicity bioassays, multi-cell call summary
In short: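 ActivityScore sums 50 for multispecies, 30 for multisex and 20 for multisite positivity. Based on the most positive experiment per sex-species across standardised chronic rodent and other animal cancer tests.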

| Structure (SMILES) | outcome |
| --- | --- |
| CCCCCCN(N=O)C(N)=O | active; multisite active; multisex active |
| O=NN1CCCCCC1 | active; multisite active; multisex active |
| CCOC(=O)[C@]1(c2ccccc2)CCC=C[C@H]1N(C)C | inactive; multisex inactive; multispecies inactive |
| CCNc1nc(Cl)nc(NCC)n1 | inactive; multisex inactive |
| CCCCCNN | active; multisite active |
| CCCCN(CC)C(=O)SCCC | inactive; multisex inactive |
| CC(=O)Nc1ccc(S(=O)(=O)O)c2cc(S(=O)(=O)O)c(N=Nc3ccc(N=Nc4ccc(S(=O)(=O)O)cc4)c4ccc(S(=O)(=O)O)cc34)c(O)c12 | inactive; multisex inactive; multispecies inactive |
| COc1ccc2nc(S(=O)Cc3ncc(C)c(OC)c3C)[nH]c2c1 (stereo not given) | active; multisex active |
| CNCc1ccc(CSCCNC(=NCC(O)c2ccc(O)cc2)NS(C)(=O)=O)o1 (stereo not given) | active; multisex active |
| CCBr | active; multisite active; multisex active; multispecies active |
| CC1=CC(=O)CC(C)(C)C1 | active; multisite active |
| Nc1ccc2oc3ccccc3c2c1 | active; multisite active; multisex active |
| CCOC(=O)N(CC)N=O | active; multisite active |
| CN(C)C(=S)S[Se](SC(=S)N(C)C)(SC(=S)N(C)C)SC(=S)N(C)C | inactive; multisex inactive |
| ClC(Cl)(Cl)C(Cl)(Cl)Cl | active; multisite active; multisex active; multispecies active |
| C=CCN(CCO)N=O | active; multisite active |
| O=NN1CC(=O)NC1=O | active; multisite active; multisex active |
| [K+] | active; multisex active |
| COc1ccc([N+](=O)[O-])cc1N | active; multisite active; multisex active; multispecies active |
| C[C@H]1CCCC(=O)CCC/C=C/c2cc(O)cc(O)c2C(=O)O1 | active; multisite active; multisex active |
| C=C(Cl)CSC(=S)N(CC)CC | active; multisite active; multisex active; multispecies active |
| O=S(=O)(O)c1ccc(N=Nc2cc(S(=O)(=O)O)c3ccccc3c2O)c2ccccc12 | inactive; multisex inactive; multispecies inactive |
| CC1SC(C)N(N=O)C(C)S1 (stereo not given) | active; multisite active |
| FC(F)(F)CCl | active; multisite active; multisex active |
| C[C@]12CC[C@H]3C(=CCc4cc(OS(=O)(=O)O)ccc43)[C@@H]1CCC2=O | inactive; multisex inactive |
| O=C(Nc1ccc([N+](=O)[O-])cc1Cl)c1cc(Cl)ccc1O | inactive; multisex inactive; multispecies inactive |
| O=C1NCCN1 | inactive; multisex inactive |

| Structure (SMILES) | outcome |
| --- | --- |
| O=C1NCCN1/N=C/c1ccc([N+](=O)[O-])o1 | active; multisite active |
| C=C(Cl)Cl | active; multisite active; multisex active |
| C/C=C/c1ccc2c(c1)OCO2 | inactive; multisex inactive |
| CCCCCCc1ccc(O)cc1O | inactive; multisex inactive; multispecies inactive |
| CCNC(=O)N(CCN(C)C)N=O | active; multisite active |
| NC(=O)NNc1ccccc1 | active; multisex active |
| Cc1cnc2ccc3c(nc(N)n3C)c2n1 | active; multisite active; multisex active; multispecies active |
| OC[C@@H](O)[C@@H](O)[C@H](O)[C@H](O)CO | inactive; multisex inactive; multispecies inactive |
| O=C(O)/C=C/c1ccc(O)c(O)c1 | active; multisite active; multisex active; multispecies active |
| C=CC=C | active; multisite active; multisex active; multispecies active |
| CCNC(=O)N(CCO)N=O | active; multisite active; multisex active |
| NS(=O)(=O)c1cc2c(cc1Cl)NCNS2(=O)=O | inactive; multisex inactive; multispecies inactive |
| NC(=O)N(CCCO)N=O | active; multisex active |
| Clc1cccc(-c2ccc(Cl)c(Cl)c2Cl)c1Cl | active; multisite active; multisex active; multispecies active |
| CC1CN(N=O)CC(C)N1C (stereo not given) | active; multisite active; multisex active; multispecies active |
| CN(N=O)c1ncnc2c1ncn2[C@@H]1O[C@H](CO)[C@@H](O)[C@H]1O | active; multisite active; multisex active |
| O[C@H]([C@H](O)[C@@H](O)CBr)[C@H](O)CBr | active; multisite active; multisex active; multispecies active |
| NC(=S)Nc1ccccc1 | inactive; multisex inactive; multispecies inactive |
| COc1ccc(N)cc1 | inactive; multisex inactive; multispecies inactive |
| CC(=O)OCc1ccccc1 | active; multisite active; multisex active |
| C1COCCO1 | active; multisite active; multisex active; multispecies active |
| ClC(Cl)=C(Cl)C(Cl)=C(Cl)Cl | active; multisex active |
| CC(C)O | inactive; multisex inactive; multispecies inactive |
| O=C(O)c1nn(Cc2ccc(Cl)cc2Cl)c2ccccc12 | inactive; multisex inactive |
| COc1cc(N)ccc1N=Nc1ccccc1 | inactive; multisex inactive |
| CCCCCCCCCCN(C)N=O | active; multisite active |
| CN(C)[C@@H]1C(=O)C(C(N)=O)=C(O)[C@@]2(O)C(=O)C3=C(O)c4c(O)cccc4[C@@](C)(O)[C@H]3[C@H](O)[C@@H]12 | inactive; multisex inactive; multispecies inactive |

| Structure (SMILES) | outcome |
| --- | --- |
| C=CC(OCC)OCC | inactive; multisex inactive |
| CC(O)CCl (stereo not given) | inactive; multisex inactive; multispecies inactive |
| N[C@@H](Cc1ccc(N(CCCl)CCCl)cc1)C(=O)O | active; multisite active; multisex active; multispecies active |
| Brc1cc(Br)c2cccnc2c1 | inactive; multisex inactive |
| CCOP(=S)(OCC)Oc1nc(Cl)c(Cl)cc1Cl | inactive; multisex inactive |
| Nc1ccc(Cc2ccc(N)cc2)cc1 | active; multisite active; multisex active; multispecies active |
| CC[C@H](OC(C)=O)C(C[C@H](C)N(C)C)(c1ccccc1)c1ccccc1 | active; multisex active |
| CNC(=O)Oc1cccc2c1OC(C)(C)C2 | inactive; multisex inactive |
| CN(C)C=O | inactive; multisex inactive; multispecies inactive |
| C=CCOC(=O)CC(C)C | active; multisex active; multispecies active |
| NNc1nc(-c2ccc([N+](=O)[O-])o2)cs1 | active; multisite active; multispecies active |
| Clc1ccc(-c2cccc(Cl)c2Cl)c(Cl)c1 | active; multisite active; multisex active |
| O1[As]2O[As]3O[As]1O[As](O2)O3 | inactive; multisex inactive |
| COC(=O)[C@H]1[C@H]2C[C@@H]3c4[nH]c5cc(OC)ccc5c4CCN3C[C@H]2C[C@@H](OC(=O)c2cc(OC)c(OC)c(OC)c2)[C@@H]1OC | active; multisite active; multisex active; multispecies active |
| NNC(=O)c1cccnc1 | active; multisex active |
| CC1=C(/C=C/C(C)=C/C=C/C(C)=C/C(=O)O)C(C)(C)CCC1 | inactive; multisex inactive; multispecies inactive |
| OCl | inactive; multisex inactive; multispecies inactive |
| BrC(Br)Br | active; multisex active |
| O=S(=O)([O-])[O-].[Cd+2] | active; multisex active |
| CN(C)C(=S)[S][Pb][S]C(=S)N(C)C | inactive; multisex inactive; multispecies inactive |
| CC(CN1CC(=O)NC(=O)C1)N1CC(=O)NC(=O)C1 (stereo not given) | active; multisite active; multispecies active |
| Cc1cccc(C)c1NC(=O)CN1CCCC1=O | inactive; multisex inactive; multispecies inactive |
| CC1=CC(=C(c2ccc(N)cc2)c2ccc(N)cc2)C=CC1=N | inactive; multisex inactive; multispecies inactive |
| CC1=C(/C=C/C(C)=C/C=C/C(C)=C/C=C/C=C(C)/C=C/C=C(C)/C=C/C2=C(C)CCCC2(C)C)C(C)(C)CCC1 | inactive; multisex inactive; multispecies inactive |
| CN(C)N | active; multisite active; multisex active; multispecies active |
| CC(Cl)(Cl)Cl | inactive; multisex inactive; multispecies inactive |
